Assay results reported in PubChem BioAssay AID256 (DTP/NCI, 2004).
Several values for one entry are separate records, joined by “and”; a condition that tells them apart may be missing. Equal entries are not always repeated. Toxic doses and inconclusive results are not listed.

Tested on: CD2F1 mice, L1210 leukemia ip, survival T/C
Test: NCI In Vivo Anticancer Drug Screen. Data for tumor model L1210 Leukemia (intraperitoneal) in CD2F1 (CDF1) mice
Conditions: higher = longer survival
Procedure, shortened: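 Activity against a transplanted murine tumor was judged by comparing the compound group with a vehicle group. The outcome in the treated animals was divided by that in the controls.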

With Nc1ncn(C2OC(CO)C(O)C2O)c(=O)n1 (stereo not given) the T/C (endpoint: mean survival time, dose: 1.56 mg/kg/injection, schedule: Q01DX009 (ip), vehicle: saline) was 155 % of control and 166 % of control, the T/C (endpoint: mean survival time, dose: 1.56 mg/kg/injection, schedule: Q04DX003 (ip), vehicle: saline) was 117 % of control and the T/C (endpoint: mean survival time, dose: 3.12 mg/kg/injection, schedule: Q01DX009 (ip), vehicle: saline) was 176 % of control. For the same compound, the T/C (endpoint: mean survival time, dose: 3.12 mg/kg/injection, schedule: Q03HX024 (ip), vehicle: saline) was 296 % of control, the T/C (endpoint: mean survival time, dose: 3.12 mg/kg/injection, schedule: Q04DX003 (ip), vehicle: saline) was 119 % of control and 120 % of control and 123 % of control and the T/C (endpoint: mean survival time, dose: 6.25 mg/kg/injection, schedule: Q03HX024 (ip), vehicle: saline) was 325 % of control. The T/C (endpoint: mean survival time, dose: 6.25 mg/kg/injection, schedule: Q04DX003 (ip), vehicle: saline) was 121 % of control and 123 % of control, the T/C (endpoint: mean survival time, dose: 10.0 mg/kg/injection, schedule: Q04DX003 (ip), vehicle: saline) was 112 % of control and the T/C (endpoint: mean survival time, dose: 12.5 mg/kg/injection, schedule: Q03HX024 (ip), vehicle: saline) was 353 % of control. For the same compound, the T/C (endpoint: mean survival time, dose: 12.5 mg/kg/injection, schedule: Q04DX003 (ip), vehicle: saline) was 151 % of control, the T/C (endpoint: mean survival time, dose: 25.0 mg/kg/injection, schedule: Q03HX024 (ip), vehicle: saline) was 295 % of control and the T/C (endpoint: mean survival time, dose: 25.0 mg/kg/injection, schedule: Q04DX003 (ip), vehicle: saline) was 167 % of control. The T/C (endpoint: mean survival time, dose: 50.0 mg/kg/injection, schedule: Q03HX024 (ip), vehicle: saline) was 248 % of control, the T/C (endpoint: mean survival time, dose: 50.0 mg/kg/injection, schedule: Q04DX003 (ip), vehicle: saline) was 163 % of control and 173 % of control and the T/C (endpoint: mean survival time, dose: 100.0 mg/kg/injection, schedule: Q03HX024 (ip), vehicle: saline) was 124 % of control. For the same compound, the T/C (endpoint: mean survival time, dose: 200.0 mg/kg/injection, schedule: Q04DX003 (ip), vehicle: saline) was 182 % of control and 190 % of control and 200 % of control, the T/C (endpoint: mean survival time, dose: 400.0 mg/kg/injection, schedule: Q04DX003 (ip), vehicle: saline) was 222 % of control and the T/C (endpoint: mean survival time, dose: 800.0 mg/kg/injection, schedule: Q04DX003 (ip), vehicle: saline) was 269 % of control. The T/C (endpoint: mean survival time, dose: 1600.0 mg/kg/injection, schedule: Q04DX003 (ip), vehicle: saline) was 222 % of control, the T/C (endpoint: median survival time, dose: 1.56 mg/kg/injection, schedule: Q01DX009 (ip), vehicle: other) was 156 % of control and the T/C (endpoint: median survival time, dose: 2.3 mg/kg/injection, schedule: Q03HX024 (ip), vehicle: DMSO) was 292 % of control. The T/C (endpoint: median survival time, dose: 3.12 mg/kg/injection, schedule: Q01DX009 (ip), vehicle: other) was 163 % of control and 172 % of control, the T/C (endpoint: median survival time, dose: 3.12 mg/kg/injection, schedule: Q01DX009 (ip), vehicle: saline) was 162 % of control and 177 % of control and the T/C (endpoint: median survival time, dose: 4.0 mg/kg/injection, schedule: Q03HX024 (ip), vehicle: saline) was 348 % of control. The T/C (endpoint: median survival time, dose: 6.25 mg/kg/injection, schedule: Q01DX009 (ip), vehicle: DMSO) was 210 % of control and 228 % of control, the T/C (endpoint: median survival time, dose: 6.25 mg/kg/injection, schedule: Q01DX009 (ip), vehicle: other) was 192 % of control and 193 % of control and the T/C (endpoint: median survival time, dose: 6.25 mg/kg/injection, schedule: Q01DX009 (ip), vehicle: saline) was 198 % of control and 202 % of control and 212 % of control. For the same compound, the T/C (endpoint: median survival time, dose: 6.25 mg/kg/injection, schedule: Q01DX009 (oral), vehicle: DMSO) was 191 % of control, the T/C (endpoint: median survival time, dose: 7.0 mg/kg/injection, schedule: Q03HX008 (ip), vehicle: DMSO) was 179 % of control and the T/C (endpoint: median survival time, dose: 11.2 mg/kg/injection, schedule: Q01DX005 (ip), vehicle: DMSO) was 181 % of control. The T/C (endpoint: median survival time, dose: 11.2 mg/kg/injection, schedule: Q01DX005 (iv), vehicle: DMSO) was 176 % of control, the T/C (endpoint: median survival time, dose: 12.5 mg/kg/injection, schedule: Q01DX009 (ip), vehicle: DMSO) was 224 % of control and 258 % of control and the T/C (endpoint: median survival time, dose: 12.5 mg/kg/injection, schedule: Q01DX009 (ip), vehicle: other) was 214 % of control and 219 % of control. For the same compound, the T/C (endpoint: median survival time, dose: 12.5 mg/kg/injection, schedule: Q01DX009 (oral), vehicle: DMSO) was 225 % of control, the T/C (endpoint: median survival time, dose: 14.0 mg/kg/injection, schedule: Q03HX008 (ip), vehicle: DMSO) was 174 % of control and the T/C (endpoint: median survival time, dose: 22.5 mg/kg/injection, schedule: Q01DX005 (ip), vehicle: DMSO) was 187 % of control. The T/C (endpoint: median survival time, dose: 22.5 mg/kg/injection, schedule: Q01DX005 (iv), vehicle: DMSO) was 201 % of control, the T/C (endpoint: median survival time, dose: 25.0 mg/kg/injection, schedule: Q01DX009 (ip), vehicle: DMSO) was 260 % of control and 273 % of control and the T/C (endpoint: median survival time, dose: 25.0 mg/kg/injection, schedule: Q01DX009 (ip), vehicle: other) was 237 % of control and 265 % of control. The T/C (endpoint: median survival time, dose: 25.0 mg/kg/injection, schedule: Q01DX009 (oral), vehicle: DMSO) was 233 % of control, the T/C (endpoint: median survival time, dose: 28.1 mg/kg/injection, schedule: Q03HX008 (ip), vehicle: DMSO) was 186 % of control and the T/C (endpoint: median survival time, dose: 30.0 mg/kg/injection, schedule: Q01DX009 (ip), vehicle: saline) was 267 % of control and 278 % of control. The T/C (endpoint: median survival time, dose: 37.5 mg/kg/injection, schedule: Q04DX003 (ip), vehicle: DMSO) was 163 % of control, the T/C (endpoint: median survival time, dose: 44.0 mg/kg/injection, schedule: Q01DX009 (ip), vehicle: saline) was 278 % of control and 284 % of control and the T/C (endpoint: median survival time, dose: 45.0 mg/kg/injection, schedule: Q01DX005 (ip), vehicle: DMSO) was 208 % of control. For the same compound, the T/C (endpoint: median survival time, dose: 45.0 mg/kg/injection, schedule: Q01DX005 (iv), vehicle: DMSO) was 212 % of control, the T/C (endpoint: median survival time, dose: 50.0 mg/kg/injection, schedule: Q01DX009 (ip), vehicle: DMSO) was 289 % of control and 310 % of control and the T/C (endpoint: median survival time, dose: 50.0 mg/kg/injection, schedule: Q01DX009 (ip), vehicle: other) was 262 % of control and 289 % of control. The T/C (endpoint: median survival time, dose: 50.0 mg/kg/injection, schedule: Q01DX009 (oral), vehicle: DMSO) was 266 % of control, the T/C (endpoint: median survival time, dose: 56.2 mg/kg/injection, schedule: Q01DX001 (ip), vehicle: DMSO) was 123 % of control and the T/C (endpoint: median survival time, dose: 56.2 mg/kg/injection, schedule: Q03HX008 (ip), vehicle: DMSO) was 191 % of control. For the same compound, the T/C (endpoint: median survival time, dose: 67.0 mg/kg/injection, schedule: Q01DX009 (ip), vehicle: saline) was 326 % of control and 328 % of control, the T/C (endpoint: median survival time, dose: 75.0 mg/kg/injection, schedule: Q04DX003 (ip), vehicle: DMSO) was 173 % of control and the T/C (endpoint: median survival time, dose: 90.0 mg/kg/injection, schedule: Q01DX005 (ip), vehicle: DMSO) was 221 % of control. For the same compound, the T/C (endpoint: median survival time, dose: 90.0 mg/kg/injection, schedule: Q01DX005 (iv), vehicle: DMSO) was 242 % of control, the T/C (endpoint: median survival time, dose: 100.0 mg/kg/injection, schedule: Q01DX009 (ip), vehicle: DMSO) was 172 % of control and the T/C (endpoint: median survival time, dose: 100.0 mg/kg/injection, schedule: Q01DX009 (ip), vehicle: other) was 150 % of control and 277 % of control. The T/C (endpoint: median survival time, dose: 100.0 mg/kg/injection, schedule: Q01DX009 (oral), vehicle: DMSO) was 310 % of control, the T/C (endpoint: median survival time, dose: 112.5 mg/kg/injection, schedule: Q03HX008 (ip), vehicle: DMSO) was 198 % of control and the T/C (endpoint: median survival time, dose: 150.0 mg/kg/injection, schedule: Q04DX003 (ip), vehicle: DMSO) was 198 % of control. The T/C (endpoint: median survival time, dose: 180.0 mg/kg/injection, schedule: Q01DX005 (ip), vehicle: DMSO) was 242 % of control, the T/C (endpoint: median survival time, dose: 180.0 mg/kg/injection, schedule: Q01DX005 (iv), vehicle: DMSO) was 276 % of control and the T/C (endpoint: median survival time, dose: 200.0 mg/kg/injection, schedule: Q01DX009 (ip), vehicle: DMSO) was 123 % of control. The T/C (endpoint: median survival time, dose: 225.0 mg/kg/injection, schedule: Q01DX001 (iv), vehicle: DMSO) was 157 % of control, the T/C (endpoint: median survival time, dose: 225.0 mg/kg/injection, schedule: Q03HX008 (ip), vehicle: DMSO) was 180 % of control and the T/C (endpoint: median survival time, dose: 300.0 mg/kg/injection, schedule: Q04DX003 (ip), vehicle: DMSO) was 243 % of control. For the same compound, the T/C (endpoint: median survival time, dose: 400.0 mg/kg/injection, schedule: Q01DX009 (ip), vehicle: DMSO) was 117 % of control, the T/C (endpoint: median survival time, dose: 400.0 mg/kg/injection, schedule: Q01DX009 (ip), vehicle: saline) was 113 % of control and the T/C (endpoint: median survival time, dose: 400.0 mg/kg/injection, schedule: Q01DX009 (oral), vehicle: DMSO) was 117 % of control. For the same compound, the T/C (endpoint: median survival time, dose: 600.0 mg/kg/injection, schedule: Q04DX003 (ip), vehicle: DMSO) was 252 % of control, the T/C (endpoint: median survival time, dose: 900.0 mg/kg/injection, schedule: Q01DX001 (ip), vehicle: DMSO) was 162 % of control and the T/C (endpoint: median survival time, dose: 1200.0 mg/kg/injection, schedule: Q04DX003 (ip), vehicle: DMSO) was 284 % of control. For the same compound, the T/C (endpoint: median survival time, dose: 1800.0 mg/kg/injection, schedule: Q01DX001 (ip), vehicle: DMSO) was 191 % of control, the T/C (endpoint: median survival time, dose: 2400.0 mg/kg/injection, schedule: Q04DX003 (ip), vehicle: DMSO) was 290 % of control and the T/C (endpoint: median survival time, dose: 3600.0 mg/kg/injection, schedule: Q01DX001 (ip), vehicle: DMSO) was 223 % of control.
